Test results published in patent US12156850B2, “Preservative removal from eye drops containing hydrophilic drugs” (University of Florida Research Foundation, Inc., priority 2017, dated 2024).

Key:
[1] = Protocol: The partition coefficients of hydrophilic drugs and BAK in p-HEMA, p-HEMA/t-butyl methacrylate, and p-HEMA/TRIS/t-butyl methacrylate particles were obtained by drug uptake studies. The mass of drug or BAK partitioned into p-HEMA hydrogel matrix was determined by monitoring the amount of drug or BAK lost in the concentrated aqueous drug/PBS or BAK/PBS loading solutions. The amount of drug loss from the concentrated aqueous phase was quantified by time-dependent absorbance measurements using UV-Vis spectrophotometry in a broad spectral range. […]
Time-dependent equilibrium interfacial tension measured via pendant drop tensiometry can be used to quantify the amount of BAK loss from the concentrated aqueous phase. […]
The partition coefficient of BAK in p-HEMA and p-HEMA/Tert-butyl methacrylate particle matrices were obtained by uptake studies. […] The mass of BAK partitioned in the p-HEMA and p-HEMA/TBM particle matrix was determined by monitoring the amount of BAK lost in the concentrated aqueous BAK/PBS loading solutions. The amount of BAK lost from the concentrated aqueous phase was quantified by time-dependent absorbance measurements using UV-Vis spectrophotometry (Genesys™ 10 UV, Thermo Spectronic, Rochester, NY, USA) over a wavelength range of 190-500 nm. […]

[2] = Equilibrium interfacial tension calibration of BAK solutions, Langmuir adsorption isotherm fit; format: physicochemical; conditions: Langmuir fit of b275
Protocol: The dynamic interfacial tension of filtered ophthalmic formulations was measured via pendant drop tensiometry using the commercially automated instrument named Kruss DSA 100 (Drop Shape Analyzer). A pendant drop is a drop of the filtered formulation was suspended at the tip of a 14-gauge needle with air as the surrounding phase. The silhouette of the axisymmetric formulation drop is imaged at regular time intervals and iteratively fit to Young-Laplace equation to measure its dynamic surface tension as a function of time. This robust method is commonly employed due to a high-speed and precise estimation of interfacial tension based on drop curvature and concentration of the formulation. […]
[formula] where Γeq is the equilibrium molar surface concentration, Γ∞ is the maximum molar surface concentration, C is the bulk concentration of the aqueous formulation, α and β are adsorption and desorption constants, R is the ideal gas constant, γO is the interfacial tension of the pure solvent (PBS), γ is the equilibrium interfacial tension recorded after 12 minutes of interfacial surface generation, and T is the operating temperature for acquisition of interfacial tension of drug/BAK formulation (recorded at room temperature, 298 K). […]

Row | Substance | partition coefficient for BAK [1] | Γ∞ (maximum surface coverage) [2] [mol/m^2] | β/α (ratio of kinetic rate constants) [2] [m^3/mol]
1 | poly(hydroxyethyl methacrylate) [p-HEMA] | 100-500 |  | 
2 | Benzalkonium chloride [BAK] |  | 0.003309 | 462.14
